Experimental data from patent publication US20140161720A1, “TREATMENT OF ANGIOGENIC- OR VASCULAR-ASSOCIATED DISEASES” (THE GENERAL HOSPITAL CORPORATION, priority 2011, published 2014).
Entries after “also recorded” stand apart in the source; their conditions may differ.

Columns and labels:
[1] = system: vasculature in adult fish; assay: Effect on vasculature in adult zebrafish; type: in vivo; details: mature vasculature
[2] = system: zebrafish caudal fin regenerating vessels; assay: Caudal fin amputation, blood vessel regeneration; type: in vivo
Experimental: For the regeneration experiments, caudal fins of zebrafish were amputated at approximately the 50% proximal-distal level (21). The amputated fish were kept in individual 250-ml fish tanks, and at least five fish were used in each group. Staging for normal blood vessel regeneration was carried out at 25° C. with TG(fli1:EGFP)y1 fish, with the same fin ray and vessels of each fish was photographed at different time intervals during the course of the time-lapse study.
To examine whether DAL has a similar antivascular effect on neovasculature in adult zebrafish, neovascularization was induced by amputating the caudal fin at the ˜50% proximal-distal level and fin rays and vessels were imaged from each fish over time. In control zebrafish caudal fins, amputated blood vessels healed their ends by 24 h post-amputation and then reconnected arteries and veins through anastomosis, with blood flow resuming at wound sites by 48 h after amputation (FIG. 2B).

[3] = system: orthotopic 4T1 mammary tumors; assay: Tumor growth delay study, 4T1; type: in vivo, female SCID mice; details: 4T1 tumors, start ~200 mm^3, 37.5 mg/kg daily i.p.
Experimental: (§1) To assess the anti-tumor effects of DAL, female SCID mice bearing orthotopic 4T1 or E0771 mammary tumors were treated with daily i.p. injections of 37.5 mg/kg DAL or saline. In order to calculate tumor volumes, the major and minor axis diameters were measured with calipers and the tumor volume was calculated by assuming a spherical shape based on the average of these two dimensions. The tumors were implanted in the mammary fat pad and allowed to grow to a starting size (small ˜100 mm^3 tumors for E0771, large ˜200 mm^3 tumors for 4T1) over ˜2 weeks. To ensure that tumors in the two groups were of similar growth rates, the treatment with saline or DAL was begun in pairs of tumors with similar sizes and growth times. Tumor volumes were measured every other day until the tumors reached an average of ˜10 mm in diameter. Tumor growth was quantified with the doubling rate, and calculated by fitting an exponential growth curve to the data for tumor size versus time.
(§2) As shown in Example 3, DAL has an antivascular effect in orthotopic mammary tumors in mice. Thus, the antitumor effect of DAL was next assessed. […] The effect of DAL on the growth of orthotopic 4T1 and E0771 mammary tumors with daily treatment of DAL or saline was evaluated (FIG. 4A). 37.5 mg/kg of DAL was used for these experiments based on the pharmacokinetics results as well as in vitro and in vivo data. […]

[4] = system: orthotopic E0771 mammary tumors; assay: Tumor growth delay study, E0771; type: in vivo, female SCID mice; details: start ~100 mm^3, 37.5 mg/kg daily i.p.
Experimental: as §1, §2

[5] = system: HUVEC; assay: In vitro vascular network formation on matrigel; type: cell-based, human
Experimental: (§3) For F-actin visualization, HUVECs were plated and treated with saline or DAL (10 μM) for three hours. After fixing and permeabilizing these cultured cells, the cells were subsequently stained with phalloidin. […] Existing cordlike structures, when exposed to 10 μM of DAL for 3 hours, were also disrupted. […] HUVEC monolayers were disrupted mechanically with a pipette tip and the migration of cells to “heal” the wound was monitored using microscopy.
(§4) To assess whether DAL affects EC functions, in vitro models of vascular network formation from HUVECs were used. After overnight cultivation in matrigel, HUVECs spontaneously assemble into cord-like structures that resemble vascular networks. […] Since DAL affects actin cytoskeleton assembly, the effect of DAL on cell motility was next assessed. A scratch wound assay was utilized to study HUVEC motility based on the healing rate of a wounded monolayer.

[6] = system: HUVEC; assay: Scratch wound-healing motility assay; type: cell-based, human; details: HUVEC monolayer, DAL 5 μM, 24 hours after wounding
Experimental: as §3, §4

[7] = target: recombinant purified IDO (Homo sapiens, UniProt P14902); assay: Enzymatic assay with recombinant purified IDO; type: biochemical
recombinant purified IDO, sequence (P14902 whole entry): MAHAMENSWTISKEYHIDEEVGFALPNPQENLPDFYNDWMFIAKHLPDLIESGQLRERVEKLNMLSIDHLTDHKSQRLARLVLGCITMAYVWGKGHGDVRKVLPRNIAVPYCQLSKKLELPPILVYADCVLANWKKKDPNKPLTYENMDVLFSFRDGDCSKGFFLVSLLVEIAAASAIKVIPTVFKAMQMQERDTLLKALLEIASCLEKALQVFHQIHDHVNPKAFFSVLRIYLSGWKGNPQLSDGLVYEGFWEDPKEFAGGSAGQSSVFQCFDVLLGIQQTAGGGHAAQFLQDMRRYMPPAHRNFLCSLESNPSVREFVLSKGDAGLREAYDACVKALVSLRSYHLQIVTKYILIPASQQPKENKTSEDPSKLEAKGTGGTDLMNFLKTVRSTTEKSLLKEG
Experimental: To determine whether DAL is an immuno-modulator, the effect of DAL on IDO activity was measured. To monitor IDO enzymatic activity, HEK 293 cells were engineered to express IDO and treated with DAL in a 10-dose IC50 mode with threefold serial dilutions. The IDO activity was analyzed by the presence of kynurenine (the first stable catabolite downstream of IDO) with a spectrophotometric assay (Katz et al., 2008; Littlejohn et al., 2000). […] Because DAL inhibits recombinant purified IDO in the enzymatic assay, it is likely that DAL physically interacts with IDO1, forming a complex that represses IDO1 activity. To elucidate a possible structural basis for this inhibition, comparative modeling and molecular docking were used (FIGS. 9A-9D). […] These residues are disordered in all existing IDO structures (Thackray et al., 2008); however, in the tryptophan-bound bacterial TDO structure, the corresponding loop is well-ordered and forms a “lid” on the binding pocket. Similar to human IDO1, bacterial TDO is a heme enzyme catalyzing the conversion of tryptophan into N-formyl-kynurenine. The binding site residues are strongly conserved between the two enzymes: in particular, the lid sequences share the common motif [K/R]GTGG[T/S]. It was therefore assessed that if lid closure may be a critical step for the efficient reaction catalysis by IDO. […]

CC1(C)C=CC2=C(O1)C(=O)c1ccccc1C2=O [DAL, dehydro-alpha-lapachone]
effects on the vasculature in adult fish [1]: did not show any effects
anastomotic bridges at the amputation plane ([2]; 9 days after amputation): did not find such bridges
anastomosis and plexus formation of regenerating vessels ([2]; caudal fin after amputation): defects in anastomosis and plexus formation
tumor volume doubling time [3]: 11.21 ± 3.53 days
tumor volume doubling time [4]: 4.77 ± 0.58 days
effect on existing cordlike networks ([5]; 10 μM for 3 hours): complete reorganization of existing networks; also recorded: disrupted
HUVEC network formation on matrigel ([5]; after 24 hours / overnight cultivation): blocks HUVEC network formation; also recorded: disjoined networks
wound healing / cell motility [6]: did not move and failed to close the wound; also recorded: slowed healing
inhibition of recombinant purified IDO [7]: inhibits
